Experimental data from ChEMBL document CHEMBL1154272, “Function-oriented biosynthesis of beta-lactone proteasome inhibitors in Salinispora tropica” (J Med Chem, 2009).

Key:
[1] = Inhibition of chymotrypsin like activity of yeast 20S proteasome beta 5 subunit after 30 mins by fluorescence assay; set-up: species or system Saccharomyces cerevisiae
HCT-116 = experiment: Cytotoxicity against human HCT116 cells after 72 hrs by MTS/PMS assay; format: functional, cell-based; details: HCT-116, 72 h

For `CCCC[C@H](O)[C@@]12NC(=O)[C@H](CCCl)[C@]1(C)OC2=O` [SALINOSPORAMIDE X6], the IC50 [1] was 132 nM and the IC50 (HCT-116) was 1110 nM.
With `C[C@@]12OC(=O)[C@]1([C@@H](O)C1CCCCC1)NC(=O)[C@@H]2CCCl` the IC50 [1] was 27.5 nM and the IC50 (HCT-116) was 176 nM.
Molecule `C[C@@]12OC(=O)[C@]1([C@@H](O)C1CCCC1)NC(=O)[C@@H]2CCCl` has an IC50 [1] of 9.3 nM and an IC50 (HCT-116) of 54 nM.
With `CC(C)[C@H](O)[C@@]12NC(=O)[C@H](CCCl)[C@]1(C)OC2=O` [ANTIPROTEALIDE] the IC50 [1] was 101 nM and the IC50 (HCT-116) was 777 nM.
Work on `C[C@@]12OC(=O)[C@]1([C@@H](O)c1ccccc1)NC(=O)[C@@H]2CCCl` [SALINOSPORAMIDE X4] yielded an IC50 [1] of 1030 nM and an IC50 (HCT-116) of 6880 nM.
Molecule `C[C@@]12OC(=O)[C@]1([C@@H](O)[C@@H]1C=CCCC1)NC(=O)[C@@H]2CCCl` [MARIZOMIB] has an IC50 [1] of 1.9 nM and an IC50 (HCT-116) of 16 nM.
In the case of `C[C@@]12OC(=O)[C@]1([C@@H](O)[C@@H]1C=CCC1)NC(=O)[C@@H]2CCCl` [SALINOSPORAMIDE X7], the IC50 [1] is reported as 2.2 nM and the IC50 (HCT-116) is reported as 5.9 nM.
Work on `CCC[C@H](O)[C@@]12NC(=O)[C@H](CCCl)[C@]1(C)OC2=O` [SALINOSPORAMIDE X5] yielded an IC50 [1] of 245 nM and an IC50 (HCT-116) of 1090 nM.
Work on `C[C@@]12OC(=O)[C@]1([C@@H](O)C1CCC1)NC(=O)[C@@H]2CCCl` [SALINOSPORAMIDE X3] yielded an IC50 [1] of 93.4 nM and an IC50 (HCT-116) of 188 nM.
